In patent publication US20020018792A1, “Skin care anti-sebum compositions containing 3,4,4-trichlorocarbanilide” (Unilever Home & Personal Care USA, Division of Conopco, Inc., priority 2000, published 2002):
“Also recorded” adds a separate entry of the source. Read-outs that look alike come from different tables or passages of the source.

Assays:
human sebocytes [1] = assay: in vitro sebum suppression: 14C-acetate label remaining in sebocytes; type: cell-based; settings: for activity at 1 µM / activity at 10 µM: Homo sapiens, read-out: % of Control
Method: Secondary cultures of human sebocytes obtained from an adult […] were grown in 48-well tissue culture plates (Costar Corp.; Cambridge, Mass.) until two days post-confluence. Sebocyte growth medium consisted of Clonetics Keratinocyte Basal Medium (KBM) supplemented with 14 μg/ml bovine pituitary extract, 0.4 μg/ml hydrocortisone, 5 μg/ml insulin, […], 1.2×10^-10 M cholera toxin, 100 units/ml penicillin, and 100 μg/ml streptomycin. All cultures were incubated at 37° C. in the presence of 7.5% CO2. Medium was changed three times per week.
On the day of experimentation, the growth medium was removed and the sebocytes washed three times with sterile Dulbecco's Modified Eagle Medium (DMEM; phenol red free). Fresh DMEM was added to each sample (triplicates) with 1-5 microliter of test agent solubilized in ethanol. Controls consisted of addition of ethanol alone. Each plate was returned to the incubator for 20 hours.
This was followed by the addition of 14C-acetate buffer (5 mM final concentration, 56 mCi/mmol specific activity). Sebocytes were returned to the incubator for four hours afterwhich each culture was rinsed three times with phosphate buffered saline to remove unbound label. Radioactive label remaining in the sebocytes was harvested and counted using a Beckman scintillation counter.

human sebocytes [2] = assay: lactate dehydrogenase activity in sebocyte culture supernatant; type: cell-based; design: key: A340 at 5 min minus initial reading; higher = more LDH; settings: after 20 hours
Method: For the experiments summarized in Tables 1 and 2, lactate dehydrogenase amount was also measured. After 20 hours, 25 μl of supernatant was removed from each well and transferred to a 96-well plate. A vial of lactate dehydrogenase reagent (LD-L-20; Sigma Diagnostics; Cat 228-20) was reconstituted with 20 ml of distilled water. 200 μl of this reconstituted reagent was added to each well and the plate immediately analyzed at 340 nm. After exactly five minutes at room temperature, the plate was re-analyzed at 340 nm. The amount of lactate dehydrogenase activity was calculated by subtracting the initial reading from the five minute reading (this value indicated below in column headed “LDH”). The higher the number, the more lactate dehydrogenase is present. Increased lactate dehydrogenase numbers are associated with cellular crisis. Experimental samples were compared to the value obtained with the ethanol treated control.

SMILES: O=C(Nc1ccc(Cl)cc1)Nc1ccc(Cl)c(Cl)c1 [TCC, 3,4,4-trichlorocarbanilide]
- % of Control (human sebocytes [1]; Table 1, 1 μM, 20 hours then 4 hours 14C-acetate): 70.4%
- % of Control (human sebocytes [1]; Table 1, 10 μM, 20 hours then 4 hours 14C-acetate): 1.0%
- % of Control (human sebocytes [1]; Table 1, 100 μM, 20 hours then 4 hours 14C-acetate): 0.8%
- % of Control (human sebocytes [1]; Table 1, 1 mM, 20 hours then 4 hours 14C-acetate): 0.8%
- sebum suppressive effectiveness compared with Phenol Red (human sebocytes [1]; Table 2): more effective than Phenol Red
- % of Control (human sebocytes [1]; Table 2, 100 nM): 80.4%
- % of Control (human sebocytes [1]; Table 2, 500 nM): 54.6%
- % of Control (human sebocytes [1]; Table 2, 1 μM): 20.9%
- sebum suppressive activity in the presence of retinol (retinoid) (human sebocytes [1]; Table 3): improved sebum suppressive activity; also recorded: significantly enhanced
- % of Control (human sebocytes [1]; Table 3, 250 nM): 97.6%
- % of Control (human sebocytes [1]; Table 3, 500 nM): 75.6%
- % of Control (human sebocytes [1]; Table 3, 1 μM): 81.4%
- % of Control (human sebocytes [1]; Table 3, 2.5 μM): 4.3%
- sebum suppressive activity (human sebocytes [1]; summary of Tables 1-3): had sebum suppressive activity
- LDH (human sebocytes [2]; Table 1, 1 μM, 340 nm five minute minus initial reading, control 0.094): 0.039
- LDH (human sebocytes [2]; Table 1, 10 μM, 340 nm five minute minus initial reading, control 0.094): 0.059
- LDH (human sebocytes [2]; Table 1, 100 μM, 340 nm five minute minus initial reading, control 0.094): 0.114
- LDH (human sebocytes [2]; Table 1, 1 mM, 340 nm five minute minus initial reading, control 0.094): 0.190
- LDH (human sebocytes [2]; Table 2, 100 nM, control 0.154): 0.137
- LDH (human sebocytes [2]; Table 2, 500 nM, control 0.154): 0.136
- LDH (human sebocytes [2]; Table 2, 1 μM, control 0.154): 0.183

SMILES: CC1=C(/C=C/C(C)=C/C=C/C(C)=C/CO)C(C)(C)CCC1 [Retinol]
- activity at 1 µM (human sebocytes [1]; Table 3, 1 μM): 104%
- activity at 10 µM (human sebocytes [1]; Table 3, 10 μM): 102%

SMILES: O=S1(=O)OC(c2ccc(O)cc2)(c2ccc(O)cc2)c2ccccc21 [Phenol Red]
- activity at 1 µM (human sebocytes [1]; Table 2, 1 μM): 91.4%
- activity at 10 µM (human sebocytes [1]; Table 2, 10 μM): 70.9%
- LDH (human sebocytes [2]; Table 2, 1 μM, control 0.154): 0.169
- LDH (human sebocytes [2]; Table 2, 10 μM, control 0.154): 0.237
